Reference: US11219603B2, “Stable dosage form of etidronate-cytarabine conjugate, and use thereof” (MAXWELL BIOTECH GROUP LTD., priority 2015, dated 2022)

Columns and labels:
Format in all cases: physicochemical
[1] = Effect of MgCl2 on hydrolysis of MBC-11 in solution (formation of Ara-CMP at 25° C.); conditions: for Content of Ara-CMP (%): Water, 25° C.
Description: Studies were performed, where magnesium chloride was investigated as a stabilizer against hydrolytic decomposition. MgCl2 was added to solutions of MBC-11 conjugate in water, tartrate buffer (50 mmol/L, pH 5) and succinate buffer (50 mmol/L, pH 5). The following molar ratios of MgCl2 to MBC-11 were used: (1:2), (1:1), (2:1) and higher (˜12:1). […]

[2] = Hydrolysis rate constant with MgCl2 or CaCl2 as stabilizer; conditions: for hydrolysis rate constant (K): in water
Text: The use of calcium chloride as a stabilizer against hydrolytic decomposition in both buffer solutions and water was also investigated; the hydrolysis rate constant was compared with the constant for MgCl2. […] If molar ratios were less than 2:1, the hydrolysis rate was lower for solutions containing MgCl2.

[3] = Thermal behaviour of solutions for lyophilization (DSC); conditions: for Thermal effect (event), in words: wrapped cell reads 'Tgt/endothermicity before alloy expansion'
Text: The thermal properties of the solutions provided for lyophilization were investigated. Differential Scanning calorimetry (DSC) was used to identify the lowest possible transient temperature in the solution throughout the entire lyophilization process, including freezing and dehydration. For the solutions of most pharmaceutical products, this parameter is represented by the glass transition temperature or “Tgt”. All components and their amounts in the solution contribute to the final value of Tgt. This temperature is usually several degrees below the temperature at which the sintered material can crumble during the lyophilization process (collapse temperature, Tc). Without determining the collapse temperature by such methods as cryomicroscopy, the glass transition temperature can be used to select the primary drying temperature. Until the primary drying is completed, the initial drying temperature should be set in such a manner that there are no vials for which the glass transition temperature has been exceeded (or Tc, if known). Otherwise, the structure of the sintered material may get broken. On the one hand, the lyophilization temperature should be close to Tgt, so that the process proceeds efficiently, and on the other hand, it cannot exceed Tgt due to process requirements and qualitative product parameters. Thus, the values of collapse and glass transition temperature are important parameters for calculating safe upper temperature limits, which can be used for lyophilization.
Based on the proposed filling of the vials with the drug (100 mg of active ingredient per vial), potential solutions for filling were prepared. The excipients included sterile water for injection (SWFI), 50 mM succinate and tartrate buffers at pH 5, MgCl2, sulfobutylether β-cyclodextrin (SBEβCD), mannitol and dextran 40. In addition, for solutions containing mannitol, a study of the effect of the annealing stage (the lyophilization process stage when the samples are kept at a certain temperature below the freezing point for a certain period of time) on the improvement the crystallinity of the finished product was performed. […]

[4] = Compatibility with media for intravenous administration (Ara-CMP increase); conditions: 25 mg/mL MBC-11, MgCl2:MBC-11 2:1, dextran 5%, diluted to 1 mg/mL in D5W; within one day
[5] = SWFI, MBC-11 25 mg/mL, MgCl2 43.25 mmol/L, Mannitol 25 mg/mL, Annealing at −20° C.
[6] = SWFI, MBC-11 25 mg/mL, MgCl2 43.25 mmol/L, Mannitol 25 mg/mL, Annealing at −24° C.
[7] = SWFI, MBC-11 25 mg/mL, MgCl2 43.25 mmol/L, pH 4.59
[8] = SWFI, MBC-11 50 mg/mL, MgCl2 86.5 mmol/L, pH 4.52
[9] = Succinate buffer, MBC-11 25 mg/mL, MgCl2 86.5 mmol/L, pH 4.52
[10] = Tartrate buffer, MBC-11 25 mg/mL, MgCl2 86.5 mmol/L, pH 4.48

SMILES: CC(O)(P(=O)(O)O)P(=O)(O)OP(=O)(O)OC[C@H]1O[C@@H](n2ccc(N)nc2=O)[C@@H](O)[C@@H]1O (some centres unmarked) [MBC-11]
- Content of Ara-CMP (%) ([1]; MgCl2 1.73 mmol/L, MgCl2:MBC-11 1:1, t = 24 h): 4.6%
- Content of Ara-CMP (%) ([1]; MgCl2 3.5 mmol/L, MgCl2:MBC-11 2:1, t = 0 h): 2.7%
- Content of Ara-CMP (%) ([1]; MgCl2 3.5 mmol/L, MgCl2:MBC-11 2:1, t = 4 h): 2.7%
- Content of Ara-CMP (%) ([1]; MgCl2 3.5 mmol/L, MgCl2:MBC-11 2:1, t = 8 h): 2.9%
- Content of Ara-CMP (%) ([1]; MgCl2 3.5 mmol/L, MgCl2:MBC-11 2:1, t = 24 h): 3.7%
- Content of Ara-CMP (%) ([1]; MgCl2 20 mmol/L, MgCl2:MBC-11 ~12:1, t = 0 h): 2.6%
- Content of Ara-CMP (%) ([1]; MgCl2 20 mmol/L, MgCl2:MBC-11 ~12:1, t = 4 h): 2.7%
- Content of Ara-CMP (%) ([1]; MgCl2 20 mmol/L, MgCl2:MBC-11 ~12:1, t = 8 h): 2.9%
- Content of Ara-CMP (%) ([1]; MgCl2 20 mmol/L, MgCl2:MBC-11 ~12:1, t = 24 h): 3.5%
- increase in Ara-CMP content ([1]; previous observations (before addition of MgCl2), 8 hours at 25° C.): ~2%
- slowdown in the hydrolysis reaction ([2]; divalent metal salts added to aqueous solution in molar ratio 2:1): 90%
- hydrolysis rate constant (K) ([2]; molar ratio CaCl2 to MBC-11 2:1): 0.0005
- hydrolysis rate constant (K) ([2]; molar ratio MgCl2 to MBC-11 2:1): 0.0005
- Thermal effect (event): Tgt ([3]; SWFI, MBC-11 25 mg/mL, MgCl2 43.25 mmol/L, Dextran-40 5%): −21 °C (Tgt)
- Thermal effect (event): possible crystallization ([3]; SWFI, MBC-11 25 mg/mL, MgCl2 43.25 mmol/L, Mannitol 25 mg/mL): at −27 °C
- Thermal effect (event): crystallization after temperature processing [3, 5]: None
- Thermal effect (event): specific endothermicity [3, 5]: −22 °C
- Thermal effect (event): crystallization after annealing [3, 6]: None
- Thermal effect (event): weak endothermicity [3, 6]: −22 °C
- Thermal effect (event): Tgt [3, 7]: −22 °C (Tgt)
- Thermal effect (event): endotherm [3, 7]: −21 °C
- Thermal effect (event): Tgt ([3]; SWFI, MBC-11 25 mg/mL, MgCl2 86.5 mmol/L, Dextran-40 5%): −27 °C (Tgt)
- Thermal effect (event), in words ([3]; SWFI, MBC-11 25 mg/mL, MgCl2 86.5 mmol/L, Mannitol 25 mg/mL): Tgt/endothermicity
- Thermal effect (event): endothermicity ([3]; SWFI, MBC-11 25 mg/mL, MgCl2 86.5 mmol/L, pH 4.35): −26 °C
- Thermal effect (event): Tgt ([3]; SWFI, MBC-11 50 mg/mL, 20% SBEβCD): −26 °C (Tgt)
- Thermal effect (event): Tgt ([3]; SWFI, MBC-11 50 mg/mL, MgCl2 86.5 mmol/L, Dextran-40 5%): −24 °C (Tgt)
- Thermal effect (event), in words ([3]; SWFI, MBC-11 50 mg/mL, MgCl2 86.5 mmol/L, Mannitol 25 mg/mL): Tgt/endothermicity
- Thermal effect (event): Tgt [3, 8]: −34 °C (Tgt)
- Thermal effect (event): endothermicity [3, 8]: −21 °C
- Thermal effect (event): Tgt ([3]; SWFI, MBC-11 50 mg/mL, MgCl2 173 mmol/L, Dextran-40 5%): −36 °C (Tgt)
- Thermal effect (event), in words ([3]; SWFI, MBC-11 50 mg/mL, MgCl2 173 mmol/L, Mannitol 25 mg/mL): Tgt/endothermicity
- Thermal effect (event): endothermicity ([3]; SWFI, MBC-11 50 mg/mL, MgCl2 173 mmol/L, pH 4.23): −26 °C
- Thermal effect (event): Tgt ([3]; SWFI, MBC-11 50 mg/mL, no excipient, pH 5.2): −21 °C (Tgt)
- Thermal effect (event): endothermicity ([3]; SWFI, MBC-11 100 mg/mL, MgCl2 173 mmol/L): −22 °C
- Thermal effect (event): Tgt ([3]; SWFI, MBC-11 100 mg/mL, MgCl2 173 mmol/L, Dextran-40 5%): −29 °C (Tgt)
- Thermal effect (event): endothermicity ([3]; SWFI, MBC-11 100 mg/mL, MgCl2 350 mmol/L): −26 °C
- Thermal effect (event): Tgt ([3]; SWFI, MBC-11 100 mg/mL, no excipient, pH 5.4): −21 °C (Tgt)
- Thermal effect (event): Tgt ([3]; Succinate buffer, MBC-11 25 mg/mL, MgCl2 86.5 mmol/L, Dextran-40 5%): −30 °C (Tgt)
- Thermal effect (event), in words ([3]; Succinate buffer, MBC-11 25 mg/mL, MgCl2 86.5 mmol/L, Mannitol 25 mg/mL): Tgt/endothermicity
- Thermal effect (event): crystallization [3, 9]: −34 °C
- Thermal effect (event): endothermicity [3, 9]: −26 °C
- Thermal effect (event): Tgt ([3]; Tartrate buffer, MBC-11 25 mg/mL, MgCl2 86.5 mmol/L, Dextran-40 5%): −26 °C (Tgt)
- Thermal effect (event): Tgt ([3]; Tartrate buffer, MBC-11 25 mg/mL, MgCl2 86.5 mmol/L, Mannitol 25 mg/mL): −40 °C (Tgt)
- Thermal effect (event): Tgt [3, 10]: −40 °C (Tgt)
- Thermal effect (event): crystallization [3, 10]: −30 °C
- Thermal effect (event): endothermicity [3, 10]: −22 °C
- increase in Ara-CMP content [4]: 1%
